# Data reported in patent publication US9210927B2, “Pesticidal compositions and processes related thereto” (Dow AgroSciences LLC, priority 2013, dated 2015).
# Columns and labels:
# BAW (Spodoptera exigua) = test: Bioassays on Beet Armyworm (BAW), 128-well diet tray assay; type: in vivo; conditions: Spodoptera exigua, 168 h, read-out: BAW Rating
# Description: (§1) Bioassays on Beet Armyworm (“BAW”) and Corn Earworm (“CEW”) and Cabbage Looper (“CL”)
# (§2) Certain molecules disclosed in this document were tested against BAW and CEW and CL using procedures described in the following examples. In the reporting of the results, the “BAW & CEW & CL Rating Table” was used (See Table Section).
# Bioassays on BAW (Spodoptera exigua)
# Bioassays on BAW were conducted using a 128-well diet tray assay. one to five second instar BAW larvae were placed in each well (3 mL) of the diet tray that had been previously filled with 1 mL of artificial diet to which 50 μg/cm^2 of the test compound (dissolved in 50 μL of 90:10 acetone-water mixture) had been applied (to each of eight wells) and then allowed to dry. Trays were covered with a clear self-adhesive cover, and held at 25° C., 14:10 light-dark for five to seven days. Percent mortality was recorded for the larvae in each well; activity in the eight wells was then averaged. The results are indicated in the table entitled “Table 3: Assay Results” (See Table Section).
# CEW (Helicoverpa zea) = test: Bioassays on Corn Earworm (CEW), 128-well diet tray assay; type: in vivo; conditions: Helicoverpa zea, 168 h; percent mortality, second instar larvae, 50 μg/cm^2 on artificial diet, five to seven days, 25° C.; read-out: CEW Rating
# Description: as §1, §2
# Bioassays on CEW (Helicoverpa zea)
# Bioassays on CEW were conducted using a 128-well diet tray assay. one to five second instar CEW larvae were placed in each well (3 mL) of the diet tray that had been previously filled with 1 mL of artificial diet to which 50 μg/cm^2 of the test compound (dissolved in 50 μL of 90:10 acetone-water mixture) had been applied (to each of eight wells) and then allowed to dry. Trays were covered with a clear self-adhesive cover, and held at 25° C., 14:10 light-dark for five to seven days. Percent mortality was recorded for the larvae in each well; activity in the eight wells was then averaged. The results are indicated in the table entitled “Table 3: Assay Results” (See Table Section).
Compound,pest or weed control at 50 µg/cm2 (BAW (Spodoptera exigua)) [%],pest or weed control at 50 µg/cm2 (CEW (Helicoverpa zea)) [%]
"CC(=O)N1CCC(NC(=O)c2ccc(/C=C/C(c3cc(Cl)c(Cl)c(Cl)c3)C(F)(F)F)cc2Br)CC1 (stereo not drawn) [AC103, (E)-N-(1-Acetylpiperidin-4-yl)-2-bromo-4-(4,4,4-trifluoro-3-(3,4,5-trichlorophenyl)but-1-en-1-yl)benzamide]",50 to 100,50 to 100
N#CCN1CCC(NC(=O)c2ccc(/C=C/C(c3cc(Cl)c(Cl)c(Cl)c3)C(F)(F)F)cc2Br)CC1 (stereo not drawn) [AC107],0 to 50,50 to 100
CONC(=O)CNC(=O)c1ccc(/C=C/C(c2cc(Cl)c(Cl)c(Cl)c2)C(F)(F)F)cc1Br (stereo not drawn) [AC110],50 to 100,50 to 100
C=CCNC(=O)CNC(=O)c1ccc(/C=C/C(c2cc(Cl)c(Cl)c(Cl)c2)C(F)(F)F)cc1Br (stereo not drawn) [AC111],50 to 100,50 to 100
O=C(NCCc1ccc(Cl)nc1)c1ccc(/C=C/C(c2cc(Cl)c(Cl)c(Cl)c2)C(F)(F)F)cc1Br (stereo not drawn) [AC113],0 to 50,50 to 100
"O=C(NC1CCNCC1)c1ccc(/C=C/C(c2cc(Cl)c(Cl)c(Cl)c2)C(F)(F)F)cc1Br (stereo not drawn) [AC114, (E)-2-Bromo-N-(piperidin-4-yl)-4-(4,4,4-trifluoro-3-(3,4,5-trichlorophenyl)but-1-en-1-yl)benzamide]",50 to 100,0 to 50
"Cc1cc(/C=C/C(c2cc(Cl)cc(Cl)c2)C(F)(F)F)ccc1C(=S)NCc1ccc(Cl)nc1 (stereo not drawn) [AC115, (E)-N-((6-Chloropyridin-3-yl)methyl)-4-(3-(3,5-dichlorophenyl)-4,4,4-trifluorobut-1-en-1-yl)-2-methylbenzothioamide]",50 to 100,50 to 100
O=C(NC1CCc2cc(/C=C/C(c3cc(Cl)c(Cl)c(Cl)c3)C(F)(F)F)ccc21)C1CC1 (stereo not drawn) [BC6],50 to 100,50 to 100
O=C(NC1CCCc2cc(/C=C/C(c3cc(Cl)c(Cl)c(Cl)c3)C(F)(F)F)ccc21)C1CC1 (stereo not drawn) [BC7],50 to 100,50 to 100
O=C(Cc1ccc(Cl)nc1)NC1CCc2cc(/C=C/C(c3cc(Cl)c(F)c(Cl)c3)C(F)(F)F)ccc21 (stereo not drawn) [BC9],50 to 100,50 to 100
"O=C(CC(F)(F)F)NCC(=O)n1ccc2cc(/C=C/C(c3cc(Cl)c(F)c(Cl)c3)C(F)(F)F)ccc21 (stereo not drawn) [BC13, (E)-N-(2-(5-(3-(3,5-Dichloro-4-fluorophenyl)-4,4,4-trifluorobut-1-en-1-yl)-1H-indol-1-yl)-2-oxoethyl)-3,3,3-trifluoropropanamide]",50 to 100,50 to 100
O=C(CC(F)(F)F)NCc1ccc(/C=C/C(c2cc(Cl)cc(Cl)c2)C(F)(F)F)cc1 (stereo not drawn) [CC3],50 to 100,50 to 100
O=C(NCc1ccc(/C=C/C(c2cc(Cl)cc(Cl)c2)C(F)(F)F)cc1Cl)C1CC1 (stereo not drawn) [CC8],50 to 100,50 to 100
FC(F)(F)C(/C=C/c1ccc(CNC(=S)C2CC2)c(Cl)c1)c1cc(Cl)c(Cl)c(Cl)c1 (stereo not drawn) [CC20],50 to 100,50 to 100
O=C(NCc1ccc(/C=C/C(c2cc(Cl)cc(Cl)c2)C(F)(F)F)cc1C(F)(F)F)C1CC1 (stereo not drawn) [CC21],50 to 100,50 to 100
O=C(CC(F)(F)F)NCc1ccc(/C=C/C(c2cc(Cl)c(Cl)c(Cl)c2)C(F)(F)F)cc1C(F)(F)F (stereo not drawn) [CC24],50 to 100,50 to 100
O=C(CC(F)(F)F)NCc1ccc(/C=C/C(c2cc(Cl)c(Cl)c(Cl)c2)C(F)(F)F)cc1F (stereo not drawn) [CC27],50 to 100,50 to 100
O=C(NCc1ccc(/C=C/C(c2cc(Cl)c(Cl)c(Cl)c2)C(F)(F)F)cc1F)C1CC1 (stereo not drawn) [CC28],50 to 100,50 to 100
